Reference: patent US9371336B2, “Compounds for treating spinal muscular atrophy” (PTC Therapeutics Inc., priority 2012, dated 2016)

How the values were obtained:
[1] = tested on: Smn protein; assay: Smn protein assay in tissues of adult C/C-allele SMA mice (HTRF); assay type: in vivo, mouse; conditions: 50 mg/kg BID for 10 days, relative to vehicle group, p<0.001 by ANOVA, n=10 (FIG. 8)
Description: (§1) The Smn HTRF protein assay is used to quantify the level of Smn protein in mouse tissues.
(§2) The tissue samples in Safe-Lock tubes are weighed and the volume of RIPA buffer containing the protease inhibitor cocktail is added based on the weight to volume ratios for each type of tissue: Brain (50 mg/mL), Muscle (50 mg/mL) and Spinal Cord (25 mg/mL).
(§3) Tissues are homogenized using the TissueLyzer by bead milling. 5 mm stainless steel beads are added to the sample and shaken vigorously for 5 minutes at 30 Hz in the TissueLyzer. The samples are then centrifuged for 20 minutes at 14,000×g in a microcentrifuge and the homogenates transferred to the PCR plate. The homogenates are diluted in RIPA buffer to approximately 1 mg/mL for HTRF and approximately 0.5 mg/mL for total protein measurement using the BCA protein assay. For the SMN HTRF assay, 35 μL of the tissue homogenate is transferred to a 384-well plate containing 5 μL of the antibody solution (1:100 dilution of each of the anti-SMNd2 and anti-SMN Kryptate in reconstitution buffer). […] Fluorescence for each well of the plate at 665 nm and 620 nm is measured on an EnVision multilabel plate reader (Perkin-Elmer). The total protein in the tissue homogenate is measured using the BCA assay according to the manufacturer's protocol.
(§4) The normalized fluorescence signal is calculated for each sample, Blank and vehicle control well by dividing the signal at 665 nm by the signal at 620 nm. Normalizing the signal accounts for possible fluorescence quenching due to the matrix effect of the tissue homogenate. The ΔF value (a measurement of Smn protein abundance as a percent value) for each tissue sample well is calculated by subtracting the normalized average fluorescence for the Blank control wells from the normalized fluorescence for each tissue sample well, then dividing this difference by the normalized average fluorescence for the Blank control wells and multiplying the resulting value by 100. The ΔF value for each tissue sample well is divided by the total protein quantity (determined using the BCA assay) for that tissue sample. […]

[2] = tested on: Smn protein; assay: Smn protein in tissues of neonatal Δ7 SMA mice (HTRF); assay type: in vivo, mouse; conditions: neonatal SMA Δ7 homozygous knockout mice
Description: as §1, §2, §3, §4

| Structure (SMILES) | total protein-normalized Smn level, brain [1] | total protein-normalized Smn level, muscle [1] | total protein-normalized Smn level, spinal cord [1] | total protein normalized Smn level, brain ([2]; QD IP for 7 days (PND 3 to PND 9) (FIG. 9a)) | total protein normalized Smn level, spinal cord ([2]; QD IP for 7 days (PND 3 to PND 9) (FIG. 9b)) | total protein normalized Smn level, muscle ([2]; QD IP for 7 days (PND 3 to PND 9) (FIG. 9c)) |
| --- | --- | --- | --- | --- | --- | --- |
| CN1CCN(c2ccc3cc(-c4nc5c(Cl)cccc5s4)c(=O)oc3n2)CC1 [Cpd 5, 3-(4-chloro-1,3-benzothiazol-2-yl)-7-(4-methylpiperazin-1-yl)-2H-pyrano[2,3-b]pyridin-2-one] | increased | increased | increased | – | – | – |
| Cc1ccc2nc(-c3cc4ccc(N5CCN(C)CC5)nc4oc3=O)cn2c1 [Cpd 27, 3-(6-methylimidazo[1,2-a]pyridin-2-yl)-7-(4-methylpiperazin-1-yl)-2H-pyrano[2,3-b]pyridin-2-one] | – | – | – | dose dependently increased | dose dependently increased | dose dependently increased |
